Like-named read-outs stand apart in the source and are kept apart here.
How the values were obtained:
[1] = tested on: K. pneumoniae ATCC 10031; assay: MIC broth microdilution, K. pneumoniae; type: cell-based; conditions: Klebsiella pneumoniae, ATCC10031, read-out: MIC K. pneumoniae ATCC #
From the text: (§1) E. coli MG1655 originated from the laboratory collection of Dr. Csaba Pál. […] E. coli K-12 BW25113 single-gene knockout mutant lines ΔdapF, ΔmrcB, ΔsurA, ΔacrB and ΔtolC originated form the Keio collection copy owned by the laboratory of Dr. Csaba Pál.
(§2) Cation-adjusted Mueller Hinton II broth (MHBII) was used for growth of the bacteria under standard laboratory conditions, for antimicrobial susceptibility tests, and for selection of resistant variants. To prepare the MHBII broth, 22 g MHBII powder (containing 3 g beef extract, 17.5 g acid hydrolysate of casein, 1.5 g starch; Becton, Dickinson and Co., Franklin Lakes, NJ, USA) was dissolved in 1 L water. MHBII agar was prepared by addition of 14 g agar (Bacto; Molar Chemicals, Halásztelek, Hungary) to 1 L broth.
(§3) Minimum inhibitory concentrations (MICs) were determined using a standard serial broth microdilution technique, according to the Clinical and Laboratory Standards Institute guidelines. […] For Enterococcus sp., the cells were plated in BHI agar plates, and BHI broth was used to determine the MICs. […] Following the dilutions, each well was seeded with 5 × 10^4 bacterial cells. Each measurement was performed in three parallel replicates, and to avoid possible edge effects in the microwell plates, the outside rows (A, H) were filled with sterile medium. Following the inoculations, the plates were covered with the lids and wrapped in polyethylene plastic bags, to minimize evaporation but to allow O2 transfer. […] After incubation, the OD600 of each well was measured using a microplate reader (Synergy 2; Biotek, Winooski, VT, USA).

[2] = tested on: E. cloacae spp. cloacae ATCC 13047; assay: MIC broth microdilution, E. cloacae; type: cell-based, Enterobacter cloacae; conditions: Enterobacter cloacae, ATCC13047, read-out: MIC E. cloacae spp. cloacae ATCC #
[3] = tested on: E. coli MG1655 GyrB R136C; assay: microbe, parasite or virus in culture; type: cell-based, Escherichia coli; conditions: for MIC: Escherichia coli, MG1655, read-out: Minimum Inhibitory Concentration E. coli MG# GyrB R#C; for Minimum Inhibitory Concentration E. coli MG1655 GyrB R136C: in the presence of 50 µg/mL PAβN
From the text: as §1, §2, §3
(§4) These mutated amino acids are the most common sites for target-based resistance in E. coli.

[4] = tested on: E. coli MG1655 GyrA S83L, D87N ParC S80I, E84G; assay: microbe, parasite or virus in culture; type: cell-based, Escherichia coli; conditions: for MIC: Escherichia coli, MG1655, read-out: Minimum Inhibitory Concentration E. coli MG# GyrA S83L, D87N ParC S80I, E84G; for Minimum Inhibitory Concentration E. coli MG1655 GyrA S83L, D87N ParC S80I, E84G: in the presence of 50 µg/mL PAβN
From the text: as §1, §2, §3, §4

[5] = tested on: E. coli ATCC 25922; assay: MIC broth microdilution, E. coli ATCC 25922; type: cell-based; conditions: Escherichia coli, ATCC25922, read-out: MIC E. coli ATCC #
From the text: as §1, §2, §3

[6] = tested on: E. coli BW25113 WT; assay: MIC, E. coli BW25113 wild-type; type: cell-based; conditions: Escherichia coli, BW25113, read-out: Minimum Inhibitory Concentration E. coli BW# WT
From the text: as §1, §2, §3

[7] = tested on: A. baumannii ATCC 17978; assay: MIC broth microdilution, A. baumannii; type: cell-based; conditions: Acinetobacter baumannii, ATCC17978, read-out: MIC A. baumannii ATCC #
From the text: as §1, §2, §3

[8] = tested on: E. coli BW25113 ΔmrcB; type: cell-based, Escherichia coli
From the text: as §1, §2, §3

[9] = tested on: E. coli BW25113 ΔsurA; type: cell-based, Escherichia coli
From the text: as §1, §2, §3

[10] = tested on: E. coli BW25113 ΔtolC; type: cell-based, Escherichia coli
From the text: as §1, §2, §3

[11] = tested on: E. coli BW25113 ΔdapF; type: cell-based, Escherichia coli
From the text: as §1, §2, §3

[12] = tested on: E. coli BW25113 ΔacrB; type: cell-based, Escherichia coli
From the text: as §1, §2, §3

[13] = tested on: E. coli MG1655 WT; assay: MIC, E. coli MG1655 wild-type with PAβN; type: cell-based, Escherichia coli; conditions: for MIC: Escherichia coli, MG1655, read-out: Minimum Inhibitory Concentration E. coli MG# WT, 50 µg/mL PAβN, molar conversion in parentheses; for Minimum Inhibitory Concentration E. coli MG1655 WT: in the presence of 50 µg/mL PAβN
From the text: as §1, §2
as §3, with “USA). […]” for “USA).”

[14] = target: T1, E. coli DNA gyrase (Escherichia coli, UniProt P0AES4+P0AES6); assay: E. coli DNA gyrase supercoiling assay; type: biochemical
T1 construct: purchased Inspiralis, Norwich, UK
Experimental: (§5) The assay for determination of the IC50 values was performed according to previously reported procedures.
(§6) Briefly, inhibitory activities were determined using supercoiling (for DNA gyrase) and relaxation (for topoisomerase IV) assay kits (Inspiralis, Norwich, UK) on streptavidin-coated 96-well microtiter plates from Thermo Scientific Pierce (Thermo Fisher Scientific, Waltham, MA, USA). First, the plates were rehydrated with Wash Buffer and the biotinylated oligonucleotide TFO1 was then immobilized. After washing off the unbound oligonucleotide with Wash Buffer, the enzyme assay was performed. Into each well was added 24 µL of mixture containing 6 µL of Assay Buffer (containing ATP), 0.75 µL of relaxed (for E. coli DNA gyrase supercoiling assay) or supercoiled (for E. coli topoisomerase IV relaxation assay) pNO1 plasmid and 17.25 µL of water. Additionally, 3 µL of a solution of the inhibitor in 10% DMSO containing 0.008% Tween 20 and 3 µL of enzyme (1.5 U) in Dilution Buffer were also added to the wells. […] The TF buffer was added to terminate the enzymatic reaction and after additional incubation for 30 min at room temperature, which allowed for triplex formation (biotin–oligonucleotide–plasmid), the unbound plasmid was washed off using TF buffer. Promega Diamond dye in T10 buffer was then added. […] Here, the compounds were diluted using 2-fold serial dilution steps of the given compound. GraphPad Prism 6.0 software was used to calculate the IC50 values, which were determined in at least two independent measurements, and their means are given as the final result. […] Dose-response curves can be found in Supplementary Materials.

[15] = tested on: P. aeruginosa ATCC 27863; assay: MIC broth microdilution, P. aeruginosa; type: cell-based; conditions: Pseudomonas aeruginosa
From the text: as §1, §2, §3

[16] = target: T2, E. coli topoisomerase IV (Escherichia coli, UniProt P0AFI2+P20083); assay: E. coli topoisomerase IV relaxation assay; type: biochemical; conditions: for Inhibition of topoisomerase IV (in words): relaxation assay
T2 construct: purchased Inspiralis, Norwich, UK
Experimental: as §5, §6

[17] = molar conversion in parentheses
[18] = ATCC27863, 18 h, read-out: MIC P. aeruginosa ATCC #
[19] = ATCC27863, read-out: MIC P. aeruginosa ATCC #, molar conversion in parentheses, read-out: MIC P. aeruginosa ATCC 27863

Compound	MIC ([1]; broth microdilution, 18 h) [µg/mL]	MIC [1, 17] [µM]	MIC ([2]; broth microdilution, 18 h) [µg/mL]	MIC [2, 17] [µM]	MIC [3] [µM]	Minimum Inhibitory Concentration E. coli MG1655 GyrB R136C [3] [µg/mL]	MIC [4] [µM]	Minimum Inhibitory Concentration E. coli MG1655 GyrA S83L, D87N ParC S80I, E84G [4] [µg/mL]	MIC ([5]; broth microdilution, 18 h) [µg/mL]	MIC [5, 17] [µM]	MIC [6, 17] [µM]	MIC ([6]; wild-type) [µg/mL]	MIC ([7]; broth microdilution, 18 h) [µg/mL]	MIC [7, 17] [µM]	Minimum Inhibitory Concentration E. coli BW25113 ΔmrcB ([8]; impaired cell-wall mutant) [µg/mL]	Minimum Inhibitory Concentration E. coli BW25113 ΔmrcB [8, 17]	Minimum Inhibitory Concentration E. coli BW25113 ΔsurA ([9]; impaired cell-wall mutant) [µg/mL]	Minimum Inhibitory Concentration E. coli BW25113 ΔsurA [9, 17]	Minimum Inhibitory Concentration E. coli BW25113 ΔtolC ([10]; efflux pump mutant) [µg/mL]	Minimum Inhibitory Concentration E. coli BW25113 ΔtolC [10, 17]	further results
Cc1[nH]c(C(=O)Nc2nc3c(OCc4ccccc4)cc(C(=O)N4CCN(c5cc6c(cc5F)c(=O)c(C(=O)O)cn6C5CC5)CC4)cc3s2)c(Cl)c1Cl [Compound 3b, 7-(4-(4-(Benzyloxy)-2-(3,4-dichloro-5-methyl-1H-pyrrole-2-carboxamido)benzo[d]thiazole-6-carbonyl)piperazin-1-yl)-1-cyclopropyl-6-fluoro-4-oxo-1,4-dihydroquinoline-3-carboxylic acid]	> 64	> 81	> 64	> 81	40.5	32	> 81	>64	> 64	> 81	> 81	> 64	> 64	> 81	>64	(>81.0 µM)	>64	(>81.0 µM)	16	(20.3 µM)	melting point: > 300 °C; Minimum Inhibitory Concentration E. coli BW25113 ΔdapF ([11]; impaired cell-wall mutant): >64 µg/mL; Minimum Inhibitory Concentration E. coli BW25113 ΔdapF [11, 17]: (>81.0 µM); Minimum Inhibitory Concentration E. coli BW25113 ΔacrB ([12]; efflux pump mutant): >64 µg/mL; Minimum Inhibitory Concentration E. coli BW25113 ΔacrB [12, 17]: (>81.0 µM); MIC [13]: 81 µM; Minimum Inhibitory Concentration E. coli MG1655 WT [13]: 64 µg/mL; IC50 [14]: 3300 ± 1500 nM; MIC [15, 18]: > 64 µg/mL; MIC [15, 19]: > 81 µM; IC50 [16]: > 10 µM; Inhibition of topoisomerase IV (in words) [16]: lack of activity
Cc1[nH]c(C(=O)Nc2nc3ccc(C(=O)NCCC(=O)N4CCN(c5cc6c(cc5F)c(=O)c(C(=O)O)cn6C5CC5)CC4)cc3s2)c(Cl)c1Cl [Compound 7b, 1-Cyclopropyl-7-(4-(3-(2-(3,4-dichloro-5-methyl-1H-pyrrole-2-carboxamido)benzo[d]thiazole-6-carboxamido)propanoyl)piperazin-1-yl)-6-fluoro-4-oxo-1,4-dihydroquinoline-3-carboxylic acid]	8	10.6	> 64	> 84.8	1.32	1	1.32	1	> 64	> 84.8	> 84.8	> 64	> 64	> 84.8	>64	(>84.8 µM)	>64	(>84.8 µM)	2	(2.65 µM)	MIC change, ΔtolC mutant versus wild-type E. coli BW25113 ([10]; improvement of MIC in impaired efflux pump mutant): above 32 fold; Minimum Inhibitory Concentration E. coli BW25113 ΔdapF ([11]; impaired cell-wall mutant): >64 µg/mL; Minimum Inhibitory Concentration E. coli BW25113 ΔdapF [11, 17]: (>84.8 µM); Minimum Inhibitory Concentration E. coli BW25113 ΔacrB ([12]; efflux pump mutant): >64 µg/mL; Minimum Inhibitory Concentration E. coli BW25113 ΔacrB [12, 17]: (>84.8 µM); MIC [13]: 1.32 µM; Minimum Inhibitory Concentration E. coli MG1655 WT [13]: 1 µg/mL; IC50 [14]: 130 ± 10 nM; MIC [15, 18]: > 64 µg/mL; MIC [15, 19]: > 84.8 µM; IC50 [16]: 3.1 µM; Inhibition of topoisomerase IV (in words) [16]: low micromolar

From publication PMC7822030, “Hybrid Inhibitors of DNA Gyrase A and B: Design, Synthesis and Evaluation” (Pharmaceutics, 2020)
